Experimental findings from patent publication US20250161309A1, “TOPICAL COMPOSITIONS AND USES THEROF” (TOPADUR PHARMA AG, priority 2022, published 2025) are described below.

Series [1] relates to C57BL/6 mouse model of alopecia. Briefly: Topical administration and hair growth in C57BL/6 mouse model of alopecia (telogen phase, clipped dorsal skin). Format: in vivo. As to conditions: female mice. The source says:
Dorsal hair of C57BL/6 mouse is known to have a time synchronized hair cycle. From about 18-21 days of age (2-3 weeks old) and 47-95 days of age (6-14 weeks old), the dorsal hair are in the telogen/quiescent phase (visually pink skin) [Lee B H, Lee J S, Kim Y C. Hair growth-promoting effects of lavender oil in C57BL/6 mice. Toxicol Res. (2016) 32(2):103-108; Choi H I, Kang B M, Jang J, Hwang S T, Kwon O. Novel effect of sildenafil on hair growth. Biochem Biophys Res Commun. (2018) 505(3):685-691]. C57BL/6 mouse therefore is a well-established model for studying hair growth promotion.
Male and female C57BL/6 mice of 6 to 9 weeks of age in stable telogen phase of hair growth cycle were used (obtained from Vivo Bio Tech Ltd, Telangana, India).
50 μL of a clear solution of respective 0.02%, 0.002% and 0.0002% (w/v) concentrations of Cpd 1 in the corresponding vehicle (PEG-400:EtOH/7:3) (PEG-400: Central Drug House Ltd. Dehli, India; Ethanol: Changshu Hongsheng fine chemicals Co. Ltd. China) and the positive control, 2% solution (female) or 5% (male) (w/v) Minoxidil (Chemieliva, China) in the corresponding vehicle (PEG-400:EtOH/7:3) were topically applied to the clipped area on the dorsal back of the mice. The solutions covered a circular area of approximately 2 cm^2. The treatment regimen was twice daily application for 5 days/week for total of 4 weeks.
The selected animals on day 1 weighted on average 20.05 g±0.17 ranging from 19.8 to 20.2 g. The hair on the dorsal back (approx. 4×4 cm^2) of these animals were clipped without touching the skin of the animal, using an electric clipper, on day 0 before the treatment with Cpd 1 and the hair was collected. The treatment followed by visual analysis for anagen onset, skin color change and appearance of any hair growth were monitored. After completion of the experiment, the dorsal skin of all the animals was removed and visual melanogenesis was reported. The skin sections were then preserved in 10% formalin solution for further histopathology analysis.
Animals were observed during 30 days and the hair growth score was recorded on daily basis. The criteria for scoring of hair growth is as follows: no hair growth, pink skin—score 0; skin colour changes from pink to grey/light grey without visible hair growth—score 0.5 onset of anagen (skin colour changes from grey/light grey to dark grey/black without visible hair growth)—score 1; sparse hair growth—score 1.5; diffuse short hair growth—score 2, moderate hair growth—score 2.5 and dense, normal coat hair—score 3 (Lee B H, Lee J S, Kim Y C. Hair growth-promoting effects of lavender oil in C57BL/6 mice. Toxicol Res. (2016) 32(2):103-108).
Photographs of the animals were captured before the initiation and during the course of the study.
(§1) After completion of the experiments all animals were sacrificed by euthanasia (Choi H I, Kang B M, Jang J, Hwang S T, Kwon O. Novel effect of sildenafil on hair growth. Biochem Biophys Res Commun. (2018) 505(3):685-691). The dorsal skin of each animal was then removed by peeling. The peeled skin was spread and checked visually for the induction of melanogenesis indicated by visual blackening on the reverse side of the skin. The skin samples were evenly spread on a pre-labelled glass slide and kept in 10% formalin until further use. Later, the skin samples were embedded in paraffin and sectioned at 5 microns using a microtome and the corresponding slides per animal were prepared. The slides obtained were used for Haematoxylin & Eosin (H&E) staining and in the transverse and longitudinal sections' photomicrographs data, the total number of follicles in the dermis and the sub cutis were determined for each animal. The skin thickness was measured using Image J 1.44 software.
The statistical analyses were performed using GraphPad Prism 9.0.0 software. Statistical significance was determined by One-way or Two-Way ANOVA followed by Tukey's multiple comparison test. […]

Series [2] deals with C57BL/6 mouse model for chemotherapy-induced alopecia (CIA). Briefly: Preventive C57BL/6 mouse model of cyclophosphamide (chemotherapy)-induced alopecia (CIA), topical administration. The series is classed as in vivo. As to conditions: female mice, 2% Minoxidil. The procedure:
Female C57BL/6 mice (Vivo Bio Tech Ltd, Telangana, India) of 6 to 9 weeks of age in stable telogen phase of hair growth cycle were used.
100 μL of a clear solution of respective 0.0004%, 0.002% (w/v) concentrations of Cpd 1 in the corresponding vehicle (PEG-400:EtOH/7:3) (PEG-400: Central Drug House Ltd. Dehli, India; Ethanol: Changshu Hongsheng fine chemicals Co. Ltd. China) and the positive control, 2% solution (w/v) Minoxidil (Chemieliva, China) in the corresponding vehicle (PEG-400:EtOH/7:3) were topically applied to the depilated area on the dorsal back of female mice. The solutions covered a circular area of approximately 4 cm^2. The treatment regimen was twice daily for 7 days before Cyclophosphamide injection and afterwards for 3 weeks.
Animals (female) on day 1 weighted on average 18.8 g+0.2 ranging from 18.5 to 19.3 g. The animals were exposed by gentle clipping of hair from the dorsal back using an electric clipper. The following day, animals with clear skin were depilated using a depilatory cream. To evaluate the preventive potential of Cpd 1 in the chemotherapy-induced alopecia mouse model, animals were treated topically with 0.0004% and 0.002% Cpd 1, 2% Minoxidil and vehicle from day 1 onwards on the dorsal depilated skin with twice daily application regimen until day 10, when all the animals have attained the anagen stage. On day 11 after depilation, no application of the Cpd 1 or vehicle was done. This was considered a wash-out period. On day 12 after depilation, the animals were given intraperitoneal injection of cyclophosphamide (CYP-HiMedia Laboratories, Mumbai, India) at the dose of 150 mg/kg body weight. One day of wash-out period was given to the animals before restarting the treatment with Cpd 1. The treatment regimen was reinitiated with 0.0004% and 0.002% Cpd 1, 2% Minoxidil and vehicle in the respective groups for further 3 weeks. All the animals were observed from day 1 (experiment start) till day 30 (experiment termination and animal sacrifice day) and the hair growth score was recorded on a daily basis. The criteria for scoring of hair growth is as follows: no hair growth, pink skin—score 0; skin colour changes from pink to grey/light grey without visible hair growth—score 0.5; onset of anagen (skin colour changes from grey/light grey to dark grey/black without visible hair growth)—score 1; sparse hair growth—score 1.5; diffuse short hair growth—score 2, moderate hair growth—score 2.5 and dense, normal coat hair—score 3 (Lee B H, Lee J S, Kim Y C. Hair growth-promoting effects of lavender oil in C57BL/6 mice. Toxicol Res. (2016) 32(2):103-108). Photographs of the animals were captured before the initiation and during the course of the study. […]
as §1, with “software. […]” for “software.”

Turning to `CCCOc1ccc(S(=O)(=O)N2CCN(CCO[N+](=O)[O-])CC2)cc1-c1nc2c(CCC)cn(CC)c2c(=O)[nH]1` [Cpd 2, 2-(4-((3-(5-ethyl-4-oxo-7-propyl-4,5-dihydro-3H-pyrrolo[3,2-d]pyrimidin-2-yl)-4-propoxyphenyl)sulfonyl)piperazin-1-yl)ethyl nitrate], the “number of follicles in the subcutis layer of the skin and total follicle counts compared to control group” value in series [1] is “considerable higher number”. In addition, the “animals with visual melanogenesis in peeled skin” value is given as 1/5 in series [1] (0.002% (w/v), end of study) and 1/5 in series [1] (0.02% (w/v), end of study). In series [1] (0.02% (w/v)), the “skin thickness compared to vehicle and 2% Minoxidil groups” value is “increased”. In series [1] (Cpd 2-treated groups), the “anagen hair follicles (histology, H&E) compared to control groups” value is given as “more”. The “area of black skin compared to control groups” value in series [1] (at day 30) was “larger”. Also, in series [1] (topical twice daily, 5 days/week, 4 weeks, compared to vehicle group), the “adverse effects in relation to general health or body weight” value was “No adverse effects”. In series [1] (treated group 2 (Table 2: 0.002% (w/v)), after hair growth induction), the “day of skin colour change from pink to light grey (transition from telogen to anagen phase)” value is given as 10 day. Moreover, in series [1] (treated group 2 (Table 2: 0.002% (w/v)), at day 30, followed by low dose groups and Minoxidil group), the “hair growth score among treatment groups” value is “maximal”. Also, in series [1] (treated group 2 (Table 2: 0.002% (w/v)), at days 25, 29 and 30), the “hair growth (score) compared to 2% Minoxidil” value is “significant increase”. Also, the “hair growth (score) compared to vehicle” value in series [1] (treated group 2 (Table 2: 0.002% (w/v), Composition A5), from day 23 on) is “significantly higher”. Also, in series [1] (treated group 3 (Table 2: 0.02% (w/v), Composition A6), at day 29 and 30), the “hair growth compared to vehicle group” value is recorded as “significantly higher”.

`Nc1cc(N2CCCCC2)nc(N)[n+]1[O-]` [Minoxidil, 2,4-diamino-6-piperidinopyrimidine-3-oxide, reference compound]: in series [1] (positive control 2% (w/v) Minoxidil, end of study), the “visual melanogenesis in peeled skin” value is given as “No visual melanogenesis”. Further, in series [2], the “animals with complete hair growth (hair growth score of 3)” value is recorded as 3/7; the “animals with moderate hair growth (hair growth score of 2-2.5)” value is recorded as 4/7; the “attainment of hair growth compared to vehicle” value is on record as “faster attainment”; the “depth and development of dermal papilla and long hair shaft of hair follicles observed (longitudinal skin sections)” value was “majority of the animals”. In addition, the “thickness of the skin compared to vehicle group” value in series [2] is “slightly increase”. Further, the “mice with visual melanogenesis in peeled skin” value in series [2] (end of study) is given as 7/7. Further, in series [2] (vehicle 0.4), the “Ki-67 score (positive cells near the follicular region, semi-quantitative grading)” value is 1.1. Moreover, the “CD-31 mean score (perifollicular angiogenesis, semi-quantitative grading)” value in series [2] (vehicle group 0.8) is 1.4.
